These results are taken from patent US11267824B2, “Inhibitors of indoleamine 2,3-dioxygenase and/or tryptophan 2,3-dioxygenase” (IDORSIA PHARMACEUTICALS LTD, priority 2017, dated 2022).

Assay [1] has as its target Recombinant full-length human IDO1 (Homo sapiens (Human), UniProt P14902). The assay is described as follows: IDO1 enzymatic assay (IDO inhibitory activity). Type of assay: biochemical. The note with it: 2 nM enzyme, 5 μM L-tryptophan, pH6.5, 30 min pre-incubation, NFK quantified by LCMS; mean values if measured multiple times; read-out: hIDO activity (IC50 in nM). The method, boiled down: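 N-His-tagged enzyme from E. coli at 2 nM in 37.5 mM phosphate pH6.5 with ascorbate, methylene blue, catalase; compounds 10 μM–0.5 nM, 0.6% DMSO, pre-incubated 30 min RT, then 5 μM L-tryptophan for 30 min RT. NFK quantified by LCMS against d5-tryptophan; IC50 from duplicate four-parameter fit, means where repeated.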

Assay [2] addresses Recombinant human TDO comprising amino acids 19-407 (Homo sapiens (Human), UniProt P48775). In words: TDO2 enzymatic assay (TDO inhibitory activity). Type of assay: biochemical. The conditions noted are these: 15 nM enzyme, 200 μM L-tryptophan, pH7, 30 min pre-incubation, NFK quantified by LCMS; mean values if measured multiple times; read-out: hTDO activity (IC50 in nM). The method in brief:
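His-tagged enzyme (15 nM, E. coli-expressed) in pH 7 phosphate buffer with ascorbate, catalase, BSA, Tween 20, 0.6% DMSO; 30 min RT pre-incubation with compound (10 μM–0.5 nM), then 200 μM L-tryptophan for 30 min RT. N′-formylkynurenine quantified by LCMS against deuterated tryptophan; IC50 by four-parameter fit, duplicates.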

A value given as a limit tells only on which side of the number the result lay.

The IC50 is the concentration at which inhibition is half-maximal.

Recombinant human TDO comprising amino acids 19-407, sequence (P48775 19-406 limits assumed): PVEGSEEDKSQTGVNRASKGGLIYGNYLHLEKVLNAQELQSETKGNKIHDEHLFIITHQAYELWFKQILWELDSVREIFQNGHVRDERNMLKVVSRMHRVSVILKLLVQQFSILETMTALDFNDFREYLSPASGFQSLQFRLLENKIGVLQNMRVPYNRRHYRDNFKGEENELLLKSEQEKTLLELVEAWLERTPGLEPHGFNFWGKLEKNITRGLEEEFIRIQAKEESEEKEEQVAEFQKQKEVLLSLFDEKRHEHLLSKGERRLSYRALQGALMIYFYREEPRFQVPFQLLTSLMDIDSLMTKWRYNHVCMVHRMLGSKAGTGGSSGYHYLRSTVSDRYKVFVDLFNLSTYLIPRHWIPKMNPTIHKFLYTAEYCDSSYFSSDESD
Recombinant full-length human IDO1, sequence (P14902 whole entry): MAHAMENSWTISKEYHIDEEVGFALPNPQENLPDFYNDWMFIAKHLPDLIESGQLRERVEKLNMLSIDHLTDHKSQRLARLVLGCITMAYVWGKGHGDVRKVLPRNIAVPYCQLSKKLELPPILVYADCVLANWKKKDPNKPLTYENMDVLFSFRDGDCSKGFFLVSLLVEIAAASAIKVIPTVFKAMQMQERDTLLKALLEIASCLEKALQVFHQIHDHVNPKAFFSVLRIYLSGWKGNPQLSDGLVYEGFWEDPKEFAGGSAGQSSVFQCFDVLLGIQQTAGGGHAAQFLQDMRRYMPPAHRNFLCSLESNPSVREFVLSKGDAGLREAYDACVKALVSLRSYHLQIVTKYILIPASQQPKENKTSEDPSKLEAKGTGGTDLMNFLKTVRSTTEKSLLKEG

As to `COCc1sc2cncn2c1C(O)C1CCCCC1` (racemic) [Example 157, rac-Cyclohexyl-(2-methoxymethyl-imidazo[5,1-b]thiazol-3-yl)-methanol], the IC50 is 744 nM in assay [1] and 327 nM in assay [2].
On the same counts, the results for `O[C@@H](c1ccccc1)c1c(C2CC2)sc2cncn12` [Example 50a, (S)-(2-Cyclopropyl-imidazo[5,1-b]thiazol-3-yl)-phenyl-methanol] are 20 nM and 494 nM.
For `COc1ccccc1C(O)c1c(C2CC2)sc2cncn12` (racemic) [Example 147, rac-(2-Cyclopropyl-imidazo[5,1-b]thiazol-3-yl)-(2-methoxy-phenyl)-methanol], in that order: 1110 nM and 6800 nM.
As for `CCc1cccc(C(O)c2c(C3CC3)sc3cncn23)c1` (racemic) [Example 54, rac-(2-Cyclopropyl-imidazo[5,1-b]thiazol-3-yl)-(3-ethyl-phenyl)-methanol], the IC50 in assay [1] was 120 nM; in assay [2] it was 1850 nM.
On the same counts, the results for `CC(C)C1(C)CCC(C(O)c2c(C3CC3)sc3cncn23)C1` (centres unmarked) [Example 136, (2-Cyclopropyl-imidazo[5,1-b]thiazol-3-yl)-(3-isopropyl-3-methyl-cyclopentyl)-methanol] are 33.2 nM and 579 nM.
Turning to `OC(CC1CCCCC1)c1c(C2CCCC2)sc2cncn12` (racemic) [Example 10, rac-2-Cyclohexyl-1-(2-cyclopentylimidazo[5,1-b]thiazol-3-yl)ethan-1-ol], the IC50 in assay [1] worked out at 384 nM; in assay [2], 277 nM.
For the molecule `OC(c1c(C2CC2)sc2cncn12)C12CC(c3ccccc3)(C1)C2` (racemic) [Example 191, rac-(2-Cycclopropyl-imidazo[5,1-b]thiazol-3-yl)-(3-phenyl-bicyclo[1.1.1]pent-1-yl)-methanol], the results for the IC50 in assay [1] and in assay [2] were 28.6 nM and 1270 nM, respectively.
For `CC1(C)CCC(C(O)c2c(C(F)(F)F)sc3cncn23)C1` (centres unmarked) [Example 108, (3,3-Dimethyl-cyclopentyl)-(2-trifluoromethyl-imidazo[5,1-b]thiazol-3-yl)-methanol], in that order: 56.7 nM and 922 nM.
For `OC(c1ccccc1)c1c(C2CC2)sc2cncn12` (racemic) [Example 50, rac-(2-Cyclopropyl-imidazo[5,1-b]thiazol-3-yl)-phenyl-methanol], in that order: 50.5 nM and 989 nM.
As to `OC(c1ccsc1)c1c(C2CC2)sc2cncn12` (racemic) [Example 173, rac-(2-Cyclopropyl-imidazo[5,1-b]thiazol-3-yl)-thiophen-3-yl-methanol], the IC50 in assay [1] was found to be 77.3 nM; in assay [2], 1770 nM.
For `OC(c1c(C2CC2)sc2cncn12)C1CCC(C(F)(F)F)CC1` (racemic) [Example 81, rac-(2-Cyclopropyl-imidazo[5,1-b]thiazol-3-yl)-(4-trifluoromethyl-cyclohexyl)-methanol], in that order: 43.3 nM and 772 nM.
Regarding `OC(CC1CCCCC1)c1c(-c2ccccc2)sc2cncn12` (racemic) [Example 93, rac-2-Cyclohexyl-1-(2-phenyl-imidazo[5,1-b]thiazol-3-yl)-ethanol], the values for the IC50 in assay [1] and in assay [2] were 296 nM and 496 nM, respectively.
On the same counts, the results for `CC1(C)CCC(CC(O)c2c(C3CC3)sc3cncn23)C1` (centres unmarked) [Example 34, 1-(2-Cyclopropyl-imidazo[5,1-b]thiazol-3-yl)-2-(3,3-dimethyl-cyclopentyl)-ethanol] are 39.4 nM and 321 nM.
For `COc1cccc(C(O)c2c(C3CC3)sc3cncn23)c1` (racemic) [Example 56, rac-(2-Cyclopropyl-imidazo[5,1-b]thiazol-3-yl)-(3-methoxy-phenyl)-methanol], in that order: 251 nM and 3310 nM.
For `OC(c1c(-c2ccccc2F)sc2cncn12)C1CCCCC1` (racemic) [Example 182, rac-Cyclohexyl-[2-(2-fluoro-phenyl)-imidazo[5,1-b]thiazol-3-yl]-methanol], in that order: 441 nM and 239 nM.
Turning to `CC1(C)CC[C@H]([C@H](O)c2c(C3CC3)sc3cncn23)C1` [Example 47b, (S)-(2-Cyclopropyl-imidazo[5,1-b]thiazol-3-yl)-((S)-3,3-dimethyl-cyclopentyl)-methanol], the half-inhibitory concentration (IC50) stood at 5.99 nM in assay [1] and 190 nM in assay [2].
Turning to `OC(c1c(C(F)(F)F)sc2cncn12)C1CCCC1` (racemic) [Example 132, rac-Cyclopentyl-(2-trifluoromethyl-imidazo[5,1-b]thiazol-3-yl)-methanol], the IC50 in assay [1] is 44.3 nM; in assay [2], 591 nM.
For `OC(CC1CCC(C2CCCC2)CC1)c1c(C2CC2)sc2cncn12` (racemic) [Example 134, rac-2-(4-Cyclopentyl-cyclohexyl)-1-(2-cyclopropyl-imidazo[5,1-b]thiazol-3-yl)-ethanol], the IC50 in assay [1] was 757 nM; in assay [2], 2800 nM.
For `O[C@H](c1c(-c2ccccc2)sc2cncn12)C1CCCCC1` [Example 92a, (S)-Cyclohexyl-(2-phenyl-imidazo[5,1-b]thiazol-3-yl)-methanol], in that order: 242 nM and 171 nM.
Turning to `CC1CCCCC1CC(O)c1c(C2CC2)sc2cncn12` (centres unmarked) [Example 31, 1-(2-Cyclopropyl-imidazo[5,1-b]thiazol-3-yl)-2-(2-methyl-cyclohexyl)-ethanol], the figures for the IC50 in assay [1] and in assay [2] were 45.2 nM and 411 nM, respectively.
For `Cc1ccc(-c2sc3cncn3c2C(O)C2CCCCC2)cc1` (racemic) [Example 126, rac-Cyclohexyl-(2-p-tolyl-imidazo[5,1-b]thiazol-3-yl)-methanol], in that order: 3100 nM and 1010 nM.
On to `OC(CC1CC2CCC1O2)c1c(C2CC2)sc2cncn12` (centres unmarked) [Example 41, 1-(2-Cyclopropyl-imidazo[5,1-b]thiazol-3-yl)-2-(7-oxa-bicyclo[2.2.1]hept-2-yl)-ethanol], for which the IC50 in assay [1] was found to be 93.4 nM; in assay [2] it was 2340 nM.
`CC1(C)CCC(CC(O)c2c(C3CC3)sc3cncn23)CC1` (racemic) [Example 25, rac-1-(2-Cyclopropyl-imidazo[5,1-b]thiazol-3-yl)-2-(4,4-dimethyl-cyclohexyl)-ethanol]: the IC50 was determined as 75.2 nM in assay [1] and 775 nM in assay [2].
On the same counts, the results for `CCc1ccc(C(O)c2c(C3CC3)sc3cncn23)cc1` (racemic) [Example 53, rac-(2-Cyclopropyl-imidazo[5,1-b]thiazol-3-yl)-(4-ethyl-phenyl)-methanol] are 60.1 nM and 1530 nM.
For `OC(c1c(C2CC2)sc2cncn12)C1CCCC1` (racemic) [Example 46, rac-Cyclopentyl-(2-cyclopropyl-imidazo[5,1-b]thiazol-3-yl)-methanol], in that order: 11.4 nM and 473 nM.
For `CC(CC(O)c1c(C2CC2)sc2cncn12)C1CCCCC1` (centres unmarked) [Example 65, 3-Cyclohexyl-1-(2-cyclopropyl-imidazo[5,1-b]thiazol-3-yl)-butan-1-ol], in that order: 124 nM and 931 nM.
For `Cn1cc(C(O)c2c(C3CC3)sc3cncn23)nn1` (racemic) [Example 192, rac-(2-Cyclopropyl-imidazo[5,1-b]thiazol-3-yl)-(1-methyl-1H-[1,2,3]triazol-4-yl)-methanol], the IC50 in assay [1] is 590 nM; in assay [2], > 10200 nM.
For `Cc1sc2cncn2c1C(O)CC1CCCC1` (racemic) [Example 183, rac-2-Cyclopentyl-1-(2-methyl-imidazo[5,1-b]thiazol-3-yl)-ethanol], in that order: 190 nM and 573 nM.
On the same counts, the results for `O[C@H](c1c(C2CCC2)sc2cncn12)C1CCCCC1` [Example 7a, (S)-(2-Cyclobutylimidazo[5,1-b]thiazol-3-yl)(cyclohexyl)methanol] are 39.7 nM and 138 nM.
On the same counts, the results for `CC(C)C1CCC(C(O)c2c(C3CC3)sc3cncn23)CC1` (racemic) [Example 72, rac-(2-Cyclopropyl-imidazo[5,1-b]thiazol-3-yl)-(4-isopropyl-cyclohexyl)-methanol] are 102 nM and 1470 nM.
Take `Cc1sc2cncn2c1C(O)[C@H]1C[C@@H]1c1ccccc1` (single isomer, unassigned) [Example 168, rac-(R*)-(2-Methyl-imidazo[5,1-b]thiazol-3-yl)-((1S*,2S*)-2-phenyl-cyclopropyl)-methanol]: the IC50 in assay [1] came to 123 nM; in assay [2], 2710 nM.
On the same counts, the results for `Cc1sc2cncn2c1C(O)C1(C)CCCCC1` (racemic) [Example 174, rac-(1-Methyl-cyclohexyl)-(2-methyl-imidazo[5,1-b]thiazol-3-yl)-methanol] are 32.4 nM and 37.9 nM.
As for `C=Cc1sc2cncn2c1[C@@H](O)C1CCCCC1` [Example 68a, (S)-Cyclohexyl-(2-vinyl-imidazo[5,1-b]thiazol-3-yl)-methanol], the results for the IC50 in assay [1] and in assay [2] were 4.63 nM and 11.6 nM, respectively.
For `OC(c1c(Cl)sc2cncn12)C1CCCCC1` (racemic) [Example 13, rac-(2-Chloroimidazo[5,1-b]thiazol-3-yl)(cyclohexyl)methanol], in that order: 110 nM and 172 nM.
